Laboratory results published in ChEMBL document CHEMBL1141463, “In vitro anti-inflammatory activity of 3-O-methyl-flavones isolated from Siegesbeckia glabrescens” (Bioorg Med Chem Lett, 2008).
Activity calls are given as the source filed them. No cut-off for these calls is given here.

Columns and labels:
[1] = Peroxynitrite scavenging activity assessed as inhibition of DHR 123 oxidation; type: functional
BV-2 [2] = test: Decrease in iNOS protein expression in LPS-activated mouse BV2 cells at 20 uM; type: functional, cell-based
BV-2 [3] = test: Inhibition of LPS-induced NO production in mouse BV2 cells; type: functional, cell-based

IC50 (BV-2 [3]) [µM] | SMILES | SC50 [1] [µM] | Activity (BV-2 [2])
– | CC(C)(S)[C@@H](N)C(=O)O | 5.13 | –
3.8 | COc1c(-c2ccc(O)c(O)c2)oc2cc(O)cc(O)c2c1=O [3-O-METHYLQUERCETIN] | 0.77 | Active
13.2 | CNC(=N)NCCC[C@H](N)C(=O)O [TILARGININE] | – | –

SMILES | IC50 (BV-2 [3]) [µM] | SC50 [1] [µM] | Activity (BV-2 [2])
O=c1c(O)c(-c2ccc(O)c(O)c2)oc2cc(O)cc(O)c12 [QUERCETIN] | 29.6 | – | –
